Results as given in publication PMC6715447 (Science (New York, N.Y.), 2019).

Target: T1, cysteamine (2-aminoethanethiol) dioxygenase (ADO) (Homo sapiens, UniProt Q96SZ5)
T1 sequence (Q96SZ5 1-270): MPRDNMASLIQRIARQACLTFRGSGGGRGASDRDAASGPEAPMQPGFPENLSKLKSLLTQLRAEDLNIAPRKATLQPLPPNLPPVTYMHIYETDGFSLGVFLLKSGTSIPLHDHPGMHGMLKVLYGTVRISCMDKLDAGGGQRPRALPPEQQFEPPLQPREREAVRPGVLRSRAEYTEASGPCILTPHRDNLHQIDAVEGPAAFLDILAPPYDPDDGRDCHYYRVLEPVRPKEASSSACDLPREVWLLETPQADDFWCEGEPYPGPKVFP
Assay: competition of N-Cys peptide dioxygenation by recombinant ADO
Assay type: biochemical

Structure (SMILES)	IC50 [mM]
NCCS [cysteamine]	37
N[C@@H](CS)C(=O)O [cysteine]	13
